Data: patent US10662203B2, “Pyrido[2,3-b]indole compounds for the treatment and prophylaxis of bacterial infection” (Hoffmann-La Roche Inc., priority 2017, dated 2020)
In brackets after ≈: the same amount, converted by molar mass.

What was measured:
[1] = Single dose PK study (SDPK) in female CD-1 mouse; type: in vivo; settings: MOUSE IV, 1.0 mg/kg-Solution; for clearance: female, CD-1, plasma, read-out: CL total
Method: Single Dose PK Study (SDPK) in Female CD-1 Mouse: The single dose PK in female CD-1 mouse was performed to assess compound's pharmacokinetic properties. One group of animals were dosed via bolus intravenous (IV) of the respective compound. Blood samples (approximately 30 μL) were collected via saphenous vein at 5 mins, 15 min, 30 min, 1 hr, 2 hr, 4 hr and 7 hr. For last time point (24 hr), samples were collected via cardiac puncture while the mouse was under anesthesia. Blood samples were placed into tubes containing EDTA-K2 anticoagulant (2 μL of 0.5M per tube) and centrifuged at 3000 rpm for 10 minutes at 4° C. within half an hour to separate plasma from the samples. Following centrifugation, plasma samples were stored in polypropylene tubes, quick frozen over dry ice and kept at −70±10° C. until LC/MS/MS analysis. The pharmacokinetic parameters were calculated using non-compartmental module of WinNonlin® Professional 6.4.

A. baumannii (ATCC17978) = assay: 50% growth inhibitory concentration (IC50) determination assay; type: cell-based; settings: Iso-Sensitest broth, 0.098 = detection limit
Summary of the method: (§1)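 Compounds were two-fold serially diluted (50 to 0.097 μM final) in Iso-Sensitest broth, with ~5×10^5 CFU/mL bacteria. Plates were incubated at 35±2° C and growth followed by OD600 every 20 min over 16 h to derive IC50.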

S. aureus (ATCC29213) = assay: as above; type: cell-based; settings: Staphylococcus aureus, Iso-Sensitest broth, 0.098 = detection limit
Summary of the method: as §1

[2] = test system: K. pneumoniae (ATCC10031); assay: as above; type: cell-based; settings: Klebsiella pneumoniae, Iso-Sensitest broth, 0.098 = detection limit
Summary of the method: as §1

[3] = test system: HepG2 cells (ATCC HB-8065); assay: Cytotoxicity assay (HepG2, CellTiter-Blue cell viability); type: cell-based; settings: HepG2 cells, 3 days treatment; "*": the detection limit
Summary of the method: (§2)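 HepG2 cells (1.2×10^4 per well) exposed to compounds for 3 days; viability then read by CellTiter-Blue fluorescence after 3 h at 37 °C. CC50 from four-parameter logistic fit.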

[4] = test system: multiple species and strains; assay: Minimal inhibitory concentration (MIC) and MIC90 determination, broth microdilution (CLSI M07-A10); settings: S9: P. aeruginosa ATCC BAA-2113
Method: Minimal Inhibitory Concentration (MIC) and MIC90 Determination:
The MIC of antibacterial compounds against multiple species and strains was determined using the broth microdilution method according to M07-A10 Clinical and Laboratory Standards Institute (CLSI) guidelines (CLSI (2015) Methods for dilution antimicrobial susceptibility tests for bacteria that grow aerobically; Approved Standard, Tenth Edition. CLSI Document M7-A10 (ISBN 1-56238-987-4). Wayne, Pa.: Clinical and Laboratory Standards Institute, 19087, USA.). In short, bacterial strain preparation was performed on D1 and D2. […] 5-10 well-isolated colonies of similar morphology were selected and re-streaked onto fresh agar plates using sterile loops and incubated for 20-24 hr at 35±2° C. Bacterial strains were subcultured two times to ensure fresh inoculums for MIC screening. […] Alternatively, 1-2 colonies were transferred into 500 μL of saline and OD600 was adjusted to ˜0.1 using an OD meter. Bacterial inoculum was diluted by 1:280 for Gram-positive strains and 1:400 for Gram-negative strains into corresponding medium broth (CAMHB, CAMHB+3% lysed horse blood, HTM) (e.g. 35.6 μL of inoculum into 10 mL of CAMHB or 25 μL of inoculum into 10 mL of CAMHB). […] Compound stock concentration=[(highest testing concentration)×100 μL/2 μL] (e.g. if the required highest testing concentration is 64 μg/mL in assay plates, stock concentration=64 μg/mL×100 μL/2 μL=3.2 mg/mL). […] of each well was transferred in a new MTP, which served as the test plate by subsequent inoculation. The bacterial suspension prepared above is dispensed at 98 μL/well within 15 minutes after preparation. Negative controls (lack of bacterial cells) and growth control wells (lack of compound) were included in all plates. MTPs were incubated for 18-24 hours at 35±2° C. in ambient air. The MIC was recorded and CFUs were calculated on Day 4. The assay plate was placed on the top of MIC reader, and the magnification mirror was adjusted to read each wells, recording growth status as raw data. Photo images of each assay plates were recorded using Q Count 530 (Spiral Biotech). The MIC value of each compound, expressed as […], was determined as the lowest concentration required for complete growth inhibition (no visible growth).

[5] = Cytotoxicity assay (HepG2, CellTiter-Blue cell viability); type: cell-based; settings: human; HepG2 cells, 3 days treatment; "*": the detection limit; read-out: CC50
Summary of the method: as §2

[6] = Lyophilisation solubility assay (LYSA); type: physicochemical; settings: phosphate buffer, pH 6.5, aqueous buffer, thermodynamic from solid, 0.05 M phosphate buffer, HPLC-UV
Summary of the method: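 Read-out is HPLC-UV of the filtered solution and its 1/10 dilution. The dried residue of a 10 mM DMSO stock was redissolved in 0.05 M pH 6.5 phosphate buffer, then stirred 1 h, shaken 2 h and held overnight. Run in duplicate.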

Row | Structure (SMILES) | AUC total [1] [ng·h/mL] | clearance [1] [mL/min/kg] | IC50 (A. baumannii (ATCC17978); A. baumannii ATCC17978) [µM] | IC50 (S. aureus (ATCC29213)) [µM] | IC50 [2] [µM] | CC50 [3] [nM] | MIC S9 [4] | IC50 (A. baumannii (ATCC17978); Acinetobacter baumannii, ATCC17978, A. baumannii ATCC17978) [µM] | CC50 at 3 days [5] [nM] | solubility thermodynamic [6] [µg/mL]
1 | CNc1cc(F)c(F)c2c1[nH]c1ncc(-c3cnc4c(c3)c(=O)c(C(=O)O)cn4C3CCNC3)c(N(C)C)c12 (stereo not drawn) [Example 1.02] | 291.0 | 58.8 | 0.693 | < 0.098 | < 0.098 | > 100000 | 3.335 | – | – | –
2 | CNc1cc(F)c(F)c2c1[nH]c1ncc(-c3cnc4c(c3)c(=O)c(C(=O)O)cn4NC)c(N3CC[C@H]4CN(C)C[C@H]43)c12 [Example 3.01A, 6-[5,6-difluoro-8-(methylamino)-4-[(3aS,6aS)-5-methyl-2,3,3a,4,6,6a-hexahydropyrrolo[2,3-c]pyrrol-1-yl]-9H-pyrido[2,3-b]indol-3-yl]-1-(methylamino)-4-oxo-1,8-naphthyridine-3-carboxylic acid] | 195.4 | 81.9 | – | < 0.098 | < 0.098 | – | 1.796 | 0.034 | 54100 | 264 (≈ 459 µM)
